Reference: ChEMBL document CHEMBL1147541, “Synthesis of fluorinated cyclopentenyladenine as potent inhibitor of S-adenosylhomocysteine hydrolase” (Bioorg Med Chem Lett, 2004)

Biological target: Adenosylhomocysteinase (Homo sapiens, UniProt P23526)
Assay: In vitro inhibitory activity against recombinant S-adenosyl-L-homocysteine hydrolase obtained from human placenta

Adenosylhomocysteinase, sequence (P23526 whole entry): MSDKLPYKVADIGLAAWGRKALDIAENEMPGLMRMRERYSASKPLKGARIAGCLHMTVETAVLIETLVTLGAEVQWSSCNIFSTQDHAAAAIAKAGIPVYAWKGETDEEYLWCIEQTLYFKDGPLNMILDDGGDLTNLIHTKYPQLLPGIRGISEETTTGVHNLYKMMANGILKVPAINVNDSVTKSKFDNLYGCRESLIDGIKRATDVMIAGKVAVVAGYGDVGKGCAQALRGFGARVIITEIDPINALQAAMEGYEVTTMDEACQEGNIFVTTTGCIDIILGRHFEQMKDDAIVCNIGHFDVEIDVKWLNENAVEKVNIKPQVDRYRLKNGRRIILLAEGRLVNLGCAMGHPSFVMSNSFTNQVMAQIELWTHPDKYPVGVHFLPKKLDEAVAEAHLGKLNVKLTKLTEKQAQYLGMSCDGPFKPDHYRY

Row | IC50 | SMILES
1 | 8.9 µM | Nc1ncnc2c1ncn2[C@@H]1C(F)=C[C@@H](O)[C@H]1O
2 | 8.7 µM | Nc1ncnc2c1ncn2[C@@H]1C=C[C@@H](O)[C@H]1O
3 | 0.89 µM | Nc1ncnc2c1ncn2[C@@H]1C=C(CO)[C@@H](O)[C@H]1O [NEOPLANOCIN A]
4 | 0.47 µM | Nc1ncnc2c1ncn2[C@@H]1C(F)=C(CO)[C@@H](O)[C@H]1O [FLUORO-NEPLANOCIN A]
